According to publication PMC12037037 (Proceedings of the National Academy of Sciences of the …, 2025):

Tests used:
[1] = biological target: 5-HT1A (Homo sapiens, UniProt P08908); experiment: Functional assay at 5-HT1A (Fig. S4); format: cell-based
From the text: Figure S4. […] Radioligand binding (RLB) (top) and IP1 functional assays (bottom) for 5-HT1A (A), 5-HT5a (B), 5-HT6 (C), and 5-HT7 (D) receptors. Agonist or antagonist mode is indicated in the title of each graph. Data represent the mean ± SEM of 2 technical replicates.
5-carboxamidotryptamine; ND = not determined for incomplete curves.
(§1) (1 picture or pasted object on this page, not shown here)

[2] = biological target: T1, 5-HT2A receptors (Gq activation) (Homo sapiens, UniProt P28223); experiment: BRET-based assay of Gq activation; format: cell-based
T1 construct: expressed in transfected cells; host or cells: HEK293T (transient)
Experimental: IP1 Assay (5-HT2AR and 5-HT2CR). The 5-HT2AR and 5-HT2CR IPOne HTRF assays were performed at Epics
Therapeutics S.A. (Belgium, FAST-0505I) using conventional methods. Experiments were performed using the free bases
of (+)-JRT and (–)-JRT. Briefly, CHO-K1 cells expressing human recombinant 5-HT2AR grown to mid-log phase in culture
media without antibiotics were detached with PBS-EDTA, centrifuged, and resuspended in medium without antibiotics
buffer. Then, 20,000 cells were distributed in a 96-well plate and incubated overnight at 37 °C with 5% CO2. For agonist
were added to each well. The plate was incubated for 60 min at 37 °C with 5% CO2. After addition of the lysis buffer containing
IP1-d2 and anti-IP1 cryptate detection reagents, plates were incubated for 1 h at room temperature and fluorescence ratios
were measured according to the manufacturer’s specifications using the HTRF kit.
IP1 Assay (5-HT2BR). The 5-HT2BR IP1 assays were performed at Eurofins Cerep SA (Celle l’Evescault, France) using
conventional methods (Catalog #3344) as described previously.14 Experiments were performed using the free bases of (+)-
JRT and (–)-JRT. Briefly, CHO cells transfected with the human 5-HT2B receptor were suspended in a buffer containing
10 mM Hepes/NaOH (pH 7.4), 4.2 mM KCl, 146 mM NaCl, 1 mM CaCl2, 0.5 mM MgCl2, 5.5 mM glucose and 50 mM LiCl.
Then the cells were distributed in microplates at a density of ~2.104 cells/well and incubated for 30 min at 37°C in the
presence of buffer (basal control), test compound, or reference agonist. For stimulated control measurement, separate
Following incubation, the cells are lysed and the fluorescence acceptor (D2-
labeled IP1) and fluorescence donor (anti-IP1 antibody labeled with europium cryptate) were added. After 60 min at room
temperature, the fluorescence transfer was measured at lex = 337 nm and lem = 620 and 665 nm using a microplate
reader (Envision, Perkin Elmer). The IP1 concentration was determined by dividing the signal measured at 665 nm by that
measured at 620 nm (ratio).
BRET-Based GPCR Assays. […]

[3] = biological target: T2, 5-HT2A receptors (Gi1, Gi3 activation) (Homo sapiens, UniProt P28223); experiment: BRET-based assays of Gi1 and Gi3 activation; format: cell-based
T2 construct: expressed in transfected cells; host or cells: HEK293T (transient)

[4] = biological target: 5-HT2A receptor membrane preparations obtained from PSYLI2 cells (Homo sapiens, UniProt P28223); experiment: Ligand binding kinetics with [3H]-LSD on PSYLI2 membrane preparations; details: kinetics of competition binding vs [3H]-LSD
Experimental: Ligand binding kinetics at the 5-HT2AR.
Data represent the mean ± SEM of 2–3 biological replicates.
Data represent the mean ± SEM of 2–4 biological replicates.
Binding buffer consisted of 50 mM Tris HCl, 10 mM MgCl2, 0.1 mM EDTA disodium dihydrate in autoclaved
deionized water. The solution was adjusted to pH 7.4 with 10 M NaOH(aq) and stored at 4 °C. This solution was used in
membrane preparation generation as well as competition and kinetics assays.
free, see 15) were grown in 15-cm plates with Dulbecco’s Modified Eagle Media (DMEM) containing 10% fetal bovine serum and 1% penicillin/streptomycin. When the cells were >90% confluent, the media was removed, and the cells were washed
with Dulbecco’s Phosphate Buffered Saline (DPBS) (15 mL). Next, DMEM (15 mL) lacking fetal bovine serum and
penicillin/streptomycin was added, and the cells were serum-starved for 4–12 hours. Roughly 10 mL of the DMEM was
removed, leaving ~5 mL of media in the plates before placing them on ice. Once on ice, the plates were scraped and the
contents were transferred to a pre-chilled 50 mL Falcon tube and then centrifuged (2,000 g, 10 min, 4 °C). The supernatant […]
of 0.25 mL to use for quantification of protein concentration via a Bradford assay with a Coomassie protein assay reagent. […]
For association binding experiments, total and nonspecific binding was determined by adding binding buffer (2.5X solution, […]

[5] = ADME assays (Eurofins, ChemPartner); format: in vitro ADME; details: overall statement
Experimental: as §1
Comparison Between WT and S242A5.46 psychLight Variants. Activity in WT and S242A5.46 mutant forms of PsychLight was quantified by deriving ligand activity ratios (log(Emax/EC50)). […]
and (+)-JRT were fit to a log(agonist) vs. response (three parameters) curve. The Emax/EC50 analysis was performed as previously described in detail by others (16):
Response = Basal + E!"# − Basal where Emax and Basal represent the top and bottom asymptotes of the curve fit, respectively; EC50 represents the concentration that gives a response halfway between Emax and Basal; and Log[A] is the logarithm of the agonist concentration. Then, ligand activity ratios, log(Emax/EC50) were calculated for each test ligand and statistical comparisons made between each other and between genotypes using a two-way ANOVA and significant interaction effects followed by a Šídák's multiple comparisons test.
ADME and hERG Inhbition Assays. […]
Briefly, 96 well plates were coated with poly-D-lysine and approximately 15,000 cells/well. […] Images were analyzed using the Simple Neurite Tracer and Sholl analysis plug-ins for ImageJ Fiji (version 1.51N). […] All images were taken and analyzed by an experimenter blinded to treatment conditions.
Spinogenesis Assays Using Cultured Rat Cortical Neurons. […] Images were analyzed using ImageJ Fiji (version 1.51N). […]

[6] = system: cultured rat embryonic cortical neurons; experiment: Neuritogenesis assay (Sholl analysis, DIV6); format: cell-based
Experimental: Figure S8. […] (A) Sholl analysis of embryonic day 18 (E18) rat cortical
(D) Area under the curves of the Sholl plots
N values are shown within the bars. VEH =
Neuritogenesis Assays. Neuritogenesis Assays were performed as previously described (17) with slight modifications.
Briefly, 96 well plates were coated with poly-D-lysine and approximately 15,000 cells/well. Neurons were treated after 3 days in vitro (DIV3) for 1 h followed by a complete media change. Cells were incubated for an additional 3 days before fixing and staining for MAP2 on DIV6. Neurites were visualized using a chicken anti-MAP2 antibody (1:10,000; EnCor, CPCA-MAP2) and an anti-chicken IgG secondary antibody conjugated to Alexa Fluor 488 (Life Technologies, 1:500). Plates were imaged in DPBS on a Thermo Scientific CellInsight CX7 High-Content Screening Platform at 20x (N.A. = 0.45). Images were analyzed using the Simple Neurite Tracer and Sholl analysis plug-ins for ImageJ Fiji (version 1.51N). Sholl analysis circle radii = 2 µm increments. All images were taken and analyzed by an experimenter blinded to treatment conditions.

[7] = system: C57BL/6J mice; experiment: Novelty-induced locomotion; format: in vivo; details: 1 mg/kg

T1 sequence (P28223 whole entry): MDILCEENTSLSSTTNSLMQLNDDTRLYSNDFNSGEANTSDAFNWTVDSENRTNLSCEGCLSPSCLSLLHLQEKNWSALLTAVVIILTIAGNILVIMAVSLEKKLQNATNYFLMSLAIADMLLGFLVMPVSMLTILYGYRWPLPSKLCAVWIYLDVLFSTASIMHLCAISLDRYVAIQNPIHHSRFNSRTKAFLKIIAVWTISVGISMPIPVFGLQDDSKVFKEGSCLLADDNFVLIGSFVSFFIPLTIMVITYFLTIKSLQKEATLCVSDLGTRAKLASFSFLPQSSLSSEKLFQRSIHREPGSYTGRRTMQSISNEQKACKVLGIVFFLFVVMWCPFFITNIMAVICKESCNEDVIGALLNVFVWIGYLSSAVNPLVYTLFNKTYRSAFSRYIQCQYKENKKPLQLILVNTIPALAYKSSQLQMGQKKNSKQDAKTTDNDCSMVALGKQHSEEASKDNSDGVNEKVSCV
T2 sequence (P28223 whole entry): as above
Sequence of 5-HT1A (P08908 whole entry): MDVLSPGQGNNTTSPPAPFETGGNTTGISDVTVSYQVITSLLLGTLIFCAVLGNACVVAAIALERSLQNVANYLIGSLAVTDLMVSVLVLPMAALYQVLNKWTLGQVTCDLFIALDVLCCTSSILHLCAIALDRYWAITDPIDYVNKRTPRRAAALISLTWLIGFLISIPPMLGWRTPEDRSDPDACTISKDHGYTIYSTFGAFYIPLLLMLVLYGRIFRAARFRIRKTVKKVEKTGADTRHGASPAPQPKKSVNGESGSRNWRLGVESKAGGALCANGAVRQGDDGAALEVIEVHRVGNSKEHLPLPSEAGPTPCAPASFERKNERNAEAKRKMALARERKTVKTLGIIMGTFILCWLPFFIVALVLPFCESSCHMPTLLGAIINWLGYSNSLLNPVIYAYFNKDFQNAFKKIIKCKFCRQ
Sequence of 5-HT2A receptor membrane preparations obtained from PSYLI2 cells (P28223 1-263 limits assumed): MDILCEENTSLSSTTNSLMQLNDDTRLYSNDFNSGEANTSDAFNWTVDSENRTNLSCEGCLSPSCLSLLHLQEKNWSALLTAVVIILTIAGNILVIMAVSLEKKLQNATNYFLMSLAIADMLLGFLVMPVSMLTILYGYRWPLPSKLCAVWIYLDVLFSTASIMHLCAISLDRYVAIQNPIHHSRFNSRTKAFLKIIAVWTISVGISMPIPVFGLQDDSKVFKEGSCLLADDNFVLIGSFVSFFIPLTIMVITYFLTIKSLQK
Sequence of 5-HT2A receptor membrane preparations obtained from PSYLI2 cells (P28223 316-471 limits assumed): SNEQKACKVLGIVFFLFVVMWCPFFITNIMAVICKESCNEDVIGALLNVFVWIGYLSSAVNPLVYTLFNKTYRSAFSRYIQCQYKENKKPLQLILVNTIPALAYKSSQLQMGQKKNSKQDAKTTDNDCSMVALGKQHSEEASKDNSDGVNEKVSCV

For `CCN(CC)C(=O)[C@@H]1C=C2c3cccc4ccn(c34)C[C@H]2N(C)C1` [(+)-JRT], the “Functional activity at 5-HT1A” value [1] was “agonist or partial agonist”, the EC50 ([2]; Gq Activation: EC50, agonist mode) was 0.4 nM and the EC50 ([2]; Gq Activation: EC50, antagonist mode, cotreated with 10 μM serotonin (5-HT + compound)) was 931 nM. The Emax ([2]; read-out: Gq Activation: EMax) was 33%, the “Gi activation following stimulation of 5-HT2A receptors” value [3] was “does not activate” and the “Dissociation rate from the 5-HT2A receptor, fold faster than LSD” value [4] was “approximately 10 fold”. For the same compound, the ADME properties [5] was “excellent”, the “Nmax (maximum number of crossings of the Sholl plots)” value ([6]; 1 μM, DIV6, compared to vehicle control) was “increased Nmax values to a greater extent than CLZ” and the “Area under the curves of the Sholl plots (Figure S8D)” value ([6]; 1 µM, DIV6, VEH 1.000 ± 0.05010, mean ± SEM) was 1.193 ± 0.05057. For the same compound, the “Total branches (Figure S8C)” value ([6]; 1 µM, DIV6, VEH 2.325 ± 0.2641, mean ± SEM) was 4.121 ± 0.3838, the “Number of primary dendrites (Figure S8B)” value ([6]; 1 µM, DIV6, VEH 6.275 ± 0.2292, mean ± SEM) was 8.152 ± 0.2824 and the Effect on locomotion ([7]; novel arena 30 min) was “does not impact locomotion”. For the same compound, the Serotonin syndrome-like responses ([7]; backward walking, forepaw treading, hind limb abduction, low body posture, Straub tail, tremor) was “does not impact locomotion (SI Appendix, Fig. S10) or produce any serotonin syndrome-like responses”.
